# Laboratory results published in ChEMBL document CHEMBL4145634, “Discovery of Janus Kinase 2 (JAK2) and Histone Deacetylase (HDAC) Dual Inhibitors as a Novel Strategy for the Combinational Treatment of Leukemia and Invasive Fungal Infections” (J Med Chem, 2018).
# Columns and labels:
# [1] = Cmax in Sprague-Dawley rat at 10 mg/kg, ip by LC-MS/MS analysis; type: ADME, organism-based; set-up: dose 10 mg/kg, route intraperitoneal; settings: in vivo
# Rattus norvegicus = test: Clearance in Sprague-Dawley rat at 10 mg/kg, ip by LC-MS/MS analysis; type: ADME, organism-based; settings: in vivo
# HEL [2] = test: Antitumor activity in human HEL cells xenografted in SCID mouse assessed as increase in mouse survival at 10 mg/kg, ip qd measured on day 32; type: functional; settings: 768 h
# HEL [3] = test: Cell cycle arrest in human HEL cells assessed as accumulation at G2/M phase at 1 uM after 48 hrs propidium iodide staining based flow cytometry (reference value: 9.32%); type: functional
# [4] = Half life in Sprague-Dawley rat at 10 mg/kg, ip by LC-MS/MS analysis; type: ADME, organism-based; settings: in vivo
# [5] = Tmax in Sprague-Dawley rat at 10 mg/kg, ip by LC-MS/MS analysis; type: ADME, organism-based; settings: in vivo
# [6] = AUC (0 to infinity) in Sprague-Dawley rat at 10 mg/kg, ip by LC-MS/MS analysis; type: ADME, organism-based; set-up: dose 10 mg/kg, route intraperitoneal, time infinity; settings: in vivo
# HEL [7] = test: Cell cycle arrest in human HEL cells assessed as accumulation at S phase at 10 uM after 48 hrs propidium iodide staining based flow cytometry relative to control; type: functional
# HEL [8] = test: Antitumor activity against human HEL cells xenografted in BALB/C nude mouse assessed as tumor growth at 10 mg/kg, ip bid treated for 21 consecutive days relative to control; type: functional
# HEL [9] = test: Antitumor activity against human HEL cells xenografted in BALB/C nude mouse assessed as tumor growth inhibition at 10 mg/kg, ip bid treated for 21 consecutive days relative to control; type: functional; settings: read-out: TGI
# HEL [10] = test: Cell cycle arrest in human HEL cells assessed as accumulation at S phase at 1 uM after 48 hrs propidium iodide staining based flow cytometry relative to control; type: functional
SMILES,Cmax [1],clearance (Rattus norvegicus),survival at 10 mg/kg (HEL [2]),Activity (HEL [3]),half-life [4],Tmax [5],AUC(0-inf) [6],Activity (HEL [7]),T/C (HEL [8]),inhibition in vivo at 10 mg/kg (HEL [9]),Activity (HEL [10])
CS(=O)(=O)Nc1ccc(-c2ccnc(Nc3ccc(N4CCC(C(=O)Nc5ccc(/C=C/C(=O)NO)cc5)CC4)cc3)n2)cc1,1600 ng/mL,37.4 mL/min/kg,37.5%,11.75%,5.14 h,0.5 h,4470 ng·h/mL,,,,
O=C(NO)c1ccc(-c2ccnc(Nc3ccc(N4CCOCC4)cc3)n2)cc1,,,,,,,,48.68%,41.1%,59.9%,
CS(=O)(=O)Nc1ccc(-c2ccnc(Nc3ccc(N4CCC(C(=O)NCCCCCCCC(=O)NO)CC4)cc3)n2)cc1,,,,8.23%,,,,,,,25.56%
